Values of other authors, collected in US20070219271A1, “Pharmaceutical Compositions Containing Pufa And At Least One Of An Immunosuppressive Agent Or An Antineoplastic Agent” (Tillotts Pharma AG, priority 2004, published 2007).

System: human squamous carcinoma line and multidrug-resistant and carboplatin-resistant variants
Settings: cells pre-treated with GLA

Compound: CCCCC/C=C\C/C=C\C/C=C\CCCCC(=O)O [GLA, gamma-linoleic acid]
- enhancement of vincristine toxicity: up to 40%
- enhancement of toxicity of carboplatin (depending on the concentration of GLA, human squamous carcinoma and carboplatin-resistant variant cell lines): > 50%
